Assay results: patent publication US20240398788A1, “METHODS OF TREATING CANCER USING HSF1 PATHWAY INHIBITORS” (Institute of Cancer Research, priority 2021, published 2024)

How the values were obtained:
[1] = system: RMG1 ovarian cancer xenograft (ARID1A wildtype)
Excerpt: (§1) Once the tumours were established, mice were randomised into vehicle control and treatment groups. Mice in both the vehicle control and treatment groups that were removed during the course of the study due to spontaneous or treatment derived tumour regression, tumour growth approaching license limits, tumour ulceration or loss of condition were excluded from the final analysis of the mean tumour volume and standard error of the mean and up to the point they were removed from the study. The number of mice undergoing complete tumour regression in the treatment group is noted where applicable.
(§2) Two groups of 12 female NCr nude mice (3 groups of 10 for SK-OV-3) were injected with 3-5×10^6 cells of one of the above cancer cell lines, subcutaneously. […] Body weights were taken daily and animals were monitored for signs of toxicity. To evaluate drug levels the animals were euthanised in batches of 3 to 4 at 2, 6 and 24 hours after the last dose and terminal plasma and tumour samples collected for PK analysis.

[2] = system: ES-2 ovarian cancer xenograft (ARID1A wildtype)
Excerpt: as §1, §2

[3] = system: OVCAR-5 ovarian cancer xenograft (ARID1A wildtype)
Excerpt: as §1, §2

[4] = system: TOV-21G ovarian cancer xenograft (ARID1A mutation); assay: TOV-21G ovarian cancer xenograft efficacy study; format: in vivo, NCr nude mice; details: TOV-21G xenograft, 35 mg/kg oral once daily, 5/7 days, 21/19 doses/study days
Protocol: The tumor was identified as harboring an ARID1A mutation. […] Vehicle control group n=8 and 35 mg/kg dose group n=11.
(§3) The in vivo efficacy of Compound A was investigated in xenograft tumours in athymic nude mice with a focus on ovarian cancers. […] Of the seven cell lines, SK-OV-3; TOV-21G, OVISE, and IGROV1 were identified as harboring an ARID1A mutation, while OVCAR-5, ES-2, and RMG1 were ARID1A wildtype.
as §1
(§4) Two groups of 12 female NCr nude mice (3 groups of 10 for SK-OV-3) were injected with 3-5×10^6 cells of one of the above cancer cell lines, subcutaneously. […] Body weights were taken daily and animals were monitored for signs of toxicity. […]

[5] = system: SK-OV-3 ovarian cancer xenograft (ARID1A mutation); assay: SK-OV-3 ovarian cancer xenograft efficacy study; format: in vivo, athymic nude mice
Protocol: The tumor was identified as harboring an ARID1A mutation. […] Control and 35 mg/kg group n=10. Horizontal black line is 35 mg/kg group tumour volume on Day 0.
as §3, §1, §4

[6] = system: IGROV1 ovarian cancer xenograft (ARID1A mutation); assay: IGROV1 ovarian cancer xenograft efficacy study; format: in vivo, NCr nude mice; details: 35 mg/kg oral once daily, intermittent, 11/15 doses/study days
Excerpt: as §3, §1, §2

[7] = system: OVISE ovarian cancer xenograft (ARID1A mutation); assay: OVISE ovarian cancer xenograft efficacy study; format: in vivo, NCr nude mice; details: 35 mg/kg oral once daily, 5/7 days, 38/52 doses/study days
Excerpt: as §3, §1, §2

Compound: CCN1CCN(Cc2ccc3cc(C(=O)Nc4cc(NC(=O)c5ccc6c(c5)OCCO6)ccc4F)ccc3n2)CC1 [Compound A, N-(5-(2,3-Dihydrobenzo[b][1,4]dioxine-6-carboxamido)-2-fluorophenyl)-2-((4-ethylpiperazin-1-yl)methyl)quinoline-6-carboxamide]
- inhibition of xenograft tumour growth (in words) ([1]; RMG1 ARID1A wildtype model): No inhibition of xenograft tumour growth
- TGI (%) ([1]; RMG1 xenograft, 35 mg/kg oral once daily, 5/7 days, 15/19 doses/study days): −3.0%
- efficacy in xenograft model (in words) ([2]; ES-2 ARID1A wild type model, criterion TGI>50%): did not meet the criteria for efficacy
- TGI (%) ([2]; ES-2 xenograft, 35 mg/kg oral once daily, 5/7 days, 12/17 doses/study days): 12%
- efficacy in xenograft model (in words) ([3]; OVCAR-5 ARID1A wild type model, criterion TGI>50%): did not meet the criteria for efficacy
- TGI (%) ([3]; OVCAR-5 xenograft, 35 mg/kg oral once daily, 5/7 days, 21/27 doses/study days): 27%
- TGI (%) [4]: 81%
- sensitivity in xenograft models (in words) ([5]; SK-OV-3, ARID1A mutated, compared with the other six xenografts): most sensitive cell line in xenograft models
- TGI (%) ([5]; SK-OV-3 xenograft, 35 mg/kg oral once daily, continuous, 20/20 doses/study days): 120%
- TGI (%) [6]: 56%
- TGI (%) [7]: 70%
